From paper PMC10258794, “To Fold or Not to Fold: Diastereomeric Optimization of an α-Helical Antimicrobial Peptide” (Journal of Medicinal Chemistry, 2023)
Values after ≈ are worked out from the molar mass of the structure shown. Like-named read-outs stand apart in the source and are kept apart here.

Columns and labels:
Burkolderia cenocepacia = assay: microbe, parasite or virus in culture; conditions: MDR strain; MH broth pH 7.4, 16–20 h, 37 °C
Procedure: (§1) Antimicrobial activity was determined for all peptides on E. coli W3110, P. aeruginosa PAO1, A. baumannii ATCC19606, K. pneumoniae NCTC418, and methicillin-resistant S. aureus COL and for selected peptides on P. aeruginosa PA14 and the polymyxin B-resistant derivatives PA14 4.13, PA14 4.18, and PA14 2P4 as well as the clinical isolates ZEM-1A and ZEM9A, K. pneumoniae OXA-48, Enterobacter cloacae, Stenotrophomonas maltophilia, B. cenocepacia, and Staphylococus epidermis. To determine the MIC, the broth microdilution method was used.[75] A single bacterial colony was grown in LB medium overnight at 37 °C and 180 rpm shaking. The compounds were prepared as stock solutions of 2 mg/mL in sterilized milliQ deionized water, added to the first well of 96-well sterile, polypropylene round-bottom microtiter plates (TPP, untreated, Corning Incorporated, Kennebunk, USA), and diluted serially by 1/2. […] The bacterial inoculum was prepared by measuring the absorbance of the overnight culture, which was diluted to concentration of the bacteria was quantified by measuring absorbance at 600 nm and diluted to an OD600 of 0.022 in MH medium pH 7.4 (Sigma-Aldrich, Buchs, Switzerland). The sample solutions (150 μL) were mixed with 4 μL of diluted bacterial suspension with a final inoculation of about 5 × 10^5 CFU. For each test, two columns of the plate were kept for sterility control (MH medium only) and growth control (MH medium with bacterial inoculum, no compound). […] The plates were incubated at 37 °C for 16–20 h under static conditions. 15 μL of 3-(4,5-dimethylthiazol-2-yl)-2,5-diphenyltetrazolium bromide (MTT)[76] (1 mg/mL in sterilized milliQ deionized water) was added to each well, and the plates were incubated at room temperature until MTT staining was completed. The MIC was defined as the lowest concentration of the dendrimer that inhibits the visible growth of the tested bacteria (yellow) with the unaided eye.

Enterobacter cloacae = assay: microbe, parasite or virus in culture; conditions: pH 7.4
Procedure: as §1

P. aeruginosa PA14 = assay: microbe, parasite or virus in culture
Procedure: as §1

P. aeruginosa ZEM-1A = assay: microbe, parasite or virus in culture; conditions: pH 7.4
Procedure: as §1

PA14 2P4 (pmrB) = assay: microbe, parasite or virus in culture; conditions: supplementary CSV
Procedure: as §1

PA14 4.13 (phoQ) = assay: microbe, parasite or virus in culture; conditions: supplementary CSV
Procedure: as §1

PA14 4.18 (pmrB) = assay: microbe, parasite or virus in culture; conditions: supplementary CSV
Procedure: as §1

P. aeruginosa ZEM9A = assay: microbe, parasite or virus in culture; type: cell-based, Pseudomonas aeruginosa; conditions: pH 7.4
Procedure: as §1

K. pneumoniae Oxa-48 = assay: MIC broth microdilution, K. pneumoniae Oxa-48; type: cell-based, Klebsiella pneumoniae; conditions: MDR strain; MH broth pH 7.4, 16–20 h, 37 °C
Procedure: as §1

[1] = system: Stenotrophomonas maltophilia; assay: microbe, parasite or virus in culture; type: cell-based; conditions: pH 7.4
Procedure: as §1

Staphylococcus epidermis = assay: MIC broth microdilution, Staphylococcus epidermis; type: cell-based; conditions: pH 7.4
Procedure: as §1

HEK293 cells = assay: Alamar blue cytotoxicity, HEK293; type: cell-based, human; conditions: 24 h, mean ± SD, n = 3, read-out: Toxicity on HEK293 cells
Procedure: (§2) The A549 human lung adenocarcinoma cells are derived from a patient and were kindly given to us by Dr. Georgia Konstatinidou (Pharmacology Institute, Bern University). HEK293T cells were obtained from ATCC (CRL-11268). A549 and HEK293 were cultured in an incubator at 37 °C with 5% CO2 in RPMI-1640 (Gibco) and DMEM (Gibco) containing 10% fetal bovine serum (Thermo Fisher), 100 I.U./mL penicillin, and 100 μg/mL streptomycin (Gibco).
(§3) The viability of the cells was assessed with an AlamarBlue assay (ThermoFisher). Cells were seeded into 96-well plates, 4000 cells/well (HEK293) and 8000 cells/well (A549), the day before the experiment. Cells were then treated with the increasing concentration of the compound and incubated for 24 h at 37 °C in the presence of 5% CO2. The next day, the medium was removed and replaced by a 10% AlamarBlue solution in full growth medium (DMEM or RPMI-1640). The cells were incubated for 3–5 h at 37 °C with 5% CO2 in a humidified atmosphere. The fluorescence was then measured on a Tecan Infinite M1000 Pro plate reader at λex 560 nm and λem 590 nm. The value was normalized according to the untreated cells.

A549 cells = assay: Alamar blue cytotoxicity, A549; type: cell-based, human; conditions: 24 h, mean ± SD, n = 3, read-out: Toxicity on A549 lung cancern cells
Procedure: as §2, §3

A. baumannii ATCC19606 = system: A. baumannii ATCC19606
Outline: (§4)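 A colony was grown overnight in LB at 37 °C, diluted in MH medium pH 7.4 to OD600 0.022 and added to 1/2 serial dilutions of compound (final about 5 × 10^5 CFU).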

E. coli W3110 = system: E. coli W3110
Outline: as §4

K. pneumoniae NCTC418 = system: K. pneumoniae NCTC418
Outline: as §4

P. aeruginosa PAO1 = system: P. aeruginosa PAO1
Outline: as §4

S. aureus COL MRSA = system: S. aureus COL MRSA
Outline: as §4

[2] = EYPC vesicle leakage assay; type: biochemical; conditions: 10 μg/mL of compound; 10 mM TRIS, 107 mM NaCl, pH 7.4
Procedure: 5(6)-carboxyfluorescein (CF) was purchased from Sigma. EYPC, EYPG, and a Mini-Extruder were purchased from Avanti Polar Lipids. Egg PC or Egg PG thin lipid layers were prepared by evaporating a solution of 100 mg of EYPC or EYPG in 4 mL of MeOH/CHCl3 (1:1) on a rotary evaporator at room temperature and then dried in vacuo overnight. […] Extravesicular components were removed by gel filtration (Sephadex G-50) with 10 mM TRIS, 107 mM NaCl, pH 7.4 buffer. Final conditions: ∼2.5 mM PC or PG; inside: 50 mM CF, 10 mM TRIS, 10 mM NaCl, pH 7.4 buffer; outside: 10 mM TRIS, 107 mM NaCl, pH 7.4. […] The CF efflux was monitored at λem 517 nm (λex 492 nm) as a function of time after addition of the desired volume of peptide from 2 mg/mL stock in mQ water at t = 45 s, 10 and 50 μg/mL were monitored for both EYPC and EYPG. […] Fluorescence intensities were then normalized to the maximal emission intensity using I(t) = (It – I0)/(I∞ – I0) where I0 = It at peptide addition, I∞ = It at saturation of lysis.

[3] = system: Pseudomonas aeruginosa, Klebsiella pneumoniae, Acinetobacter baumannii, Escherichia coli, and methicillin-resistant Staphylococcus aureus; conditions: summary of Table 1
Outline: as §4

[4] = MH broth pH 7.4, 16–20 h, 37 °C
[5] = supplementary CSV, ranges of Table 1 given as one number

Row | SMILES | MIC A. baumannii ATCC19606 (A. baumannii ATCC19606; [4]) [µg/mL] | MIC A. baumannii ATCC19606 (A. baumannii ATCC19606; [5]) [µg/mL] | MIC E. coli W3110 (E. coli W3110; [4]) [µg/mL] | MIC P. aeruginosa PAO1 (P. aeruginosa PAO1; [4]) [µg/mL] | MIC P. aeruginosa PAO1 (P. aeruginosa PAO1; [5]) [µg/mL] | EYPC vesicle leakage (%) [2] [%] | MIC E. coli W3110 (E. coli W3110; [5]) [µg/mL] | MIC, span over E. coli, P. aeruginosa, and A. baumannii [3] [µg/mL] | further results
1 | CC(C)C[C@H](NC(=O)[C@H](CC(C)C)NC(=O)[C@H](CC(C)C)NC(=O)[C@H](CCCCN)NC(=O)[C@H](CC(C)C)NC(=O)[C@H](CC(C)C)NC(=O)[C@H](CCCCN)NC(=O)[C@H](CC(C)C)NC(=O)[C@H](CC(C)C)NC(=O)[C@@H](CCCCN)NC(=O)[C@@H](N)CCCCN)C(N)=O [HP1] | 4 (≈ 3.03 µM) | 4 (≈ 3.03 µM) | 2 (≈ 1.51 µM) | 4 (≈ 3.03 µM) | 4 (≈ 3.03 µM) | – | – | – | MIC Burkolderia cenocepacia (Burkolderia cenocepacia): >64 µg/mL; MIC Enterobacter cloacae (Enterobacter cloacae): 2 µg/mL (≈ 1.51 µM); MIC PA14 (P. aeruginosa PA14; [4]): 2 µg/mL (≈ 1.51 µM); MIC P. aeruginosa PA14 (P. aeruginosa PA14; supplementary CSV): 2 µg/mL (≈ 1.51 µM); MIC ZEM-1A (P. aeruginosa ZEM-1A): 2 µg/mL (≈ 1.51 µM); MIC P. aeruginosaPA14 2P4 (PA14 2P4 (pmrB)): 64 µg/mL (≈ 48.4 µM); MIC P. aeruginosa PA14 4.13 (PA14 4.13 (phoQ)): 4 µg/mL (≈ 3.03 µM); MIC P. aeruginosa PA14 4.18 (PA14 4.18 (pmrB)): 32 µg/mL (≈ 24.2 µM); MIC ZEM9A (P. aeruginosa ZEM9A): 4 µg/mL (≈ 3.03 µM); MIC K. pneumoniae Oxa-48 (K. pneumoniae Oxa-48): 8 µg/mL (≈ 6.05 µM); MIC Stenotrophomonas maltophilia [1]: 4 µg/mL (≈ 3.03 µM); MIC Staphylococcus epidermis (Staphylococcus epidermis): 2 µg/mL (≈ 1.51 µM); IC50 (HEK293 cells): 42.9 ± 2.6 µM; IC50 (A549 cells): 2.7 ± 2.4 µM; MIC K. pneumoniae NCTC418 (K. pneumoniae NCTC418; [4]): 4 to 8 µg/mL; MIC K. pneumoniae NCTC418 (K. pneumoniae NCTC418; [5]): 6 µg/mL (≈ 4.54 µM); MIC S. aureus COL MRSA (S. aureus COL MRSA; [4]): 2 µg/mL (≈ 1.51 µM); MIC S. aureus COL (S. aureus COL MRSA; [5]): 2 µg/mL (≈ 1.51 µM); MIC S. aureus Newman (S. aureus Newman; [4]): 2 µg/mL (≈ 1.51 µM); MIC S. aureus Newmann (S. aureus Newman; supplementary CSV): 2 µg/mL (≈ 1.51 µM)
2 | CC(C)C[C@H](NC(=O)[C@H](CC(C)C)NC(=O)[C@@H](CC(C)C)NC(=O)[C@H](CCCCN)NC(=O)[C@@H](CC(C)C)NC(=O)[C@@H](CC(C)C)NC(=O)[C@H](CCCCN)NC(=O)[C@@H](CC(C)C)NC(=O)[C@@H](CC(C)C)NC(=O)[C@H](CCCCN)NC(=O)[C@@H](N)CCCCN)C(N)=O [HP25, KKllKllKlLL] | 32 (≈ 24.2 µM) | 32 (≈ 24.2 µM) | 8 to 16 | 8 to 16 | 12 (≈ 9.08 µM) | 4 | 12 (≈ 9.08 µM) | 4 to 32 | –
3 | CC(C)C[C@H](NC(=O)[C@H](CC(C)C)NC(=O)[C@H](CC(C)C)NC(=O)[C@@H](CCCCN)NC(=O)[C@@H](CC(C)C)NC(=O)[C@@H](CC(C)C)NC(=O)[C@@H](CCCCN)NC(=O)[C@H](CC(C)C)NC(=O)[C@H](CC(C)C)NC(=O)[C@H](CCCCN)NC(=O)[C@@H](N)CCCCN)C(N)=O [HP13, KKLLkllkLLL] | 16 to 32 | 24 (≈ 18.2 µM) | 4 to 8 | 16 to 32 | 24 (≈ 18.2 µM) | 8 | 6 (≈ 4.54 µM) | 4 to 32 | –
